In patent publication US20240408214A1, “NANOPARTICULATE MONOBENZONE FOR TREATING MELANOMA” (Northwestern University, priority 2021, published 2024):

Legend:
[1] = system: Transfected HEK cells and B16-F10 melanoma cells; test: MTT cytotoxicity in HEK cells transfected with melanosomal enzymes and in B16-F10 cells (FIG. 3); assay type: cell-based; details: 250 μM, 24 h, MTT assay
Procedure: Transfected HEK cells and B16-F10 melanoma cells were exposed to 250 μM of MBEH for 24 h before cytotoxicity was measured via MTT assay.

M14 melanoma cells = test: Change in viable cell numbers of M14 melanoma cells over the treatment period (FIG. 9); assay type: cell-based; details: 100 μM, 24 h, untreated cells gained 96% viable cells
Procedure: FIG. 9. First panel: Single cell functional proteomics data indicates functional heterogeneity when comparing the effects of free and nanoparticulate MBEH on cellular functions among live cells. Adherent M14 melanoma cells were incubated for 24 h with 100 μM of free MBEH (a), nanoparticulate monobenzone with lauroyl MBEH-loaded liposomes (b), MBEH-loaded MOF nanoparticles (c) or vehicle alone (d) before being harvested and loaded into individual wells of the respective Isocode chips (˜30,000 cells/sample) to measure the presence of phosphorylated proteins among individual, live cells by IsoPlexis functional proteomics. […] The decreases in cell-proliferation pathways are even more than those observed in cells that have been exposed to the free MBEH. The individual phosphoproteins measured (results are shown for ˜300 live, single cells per group) are categorized as shown in the legend. The most profound effect on cell signaling was found in presence of long-tailed MBEH. Over the treatment period, untreated cells gained 96% viable cells, whereas cell numbers were reduced by 45, 29 and 1% respectively in response to the free drug, MBEH-loaded MOFs and liposomes loaded with lauroyl MBEH, respectively. Functional heterogeneity among treatments was driven by PARP, P-eIF4α and ribosomal P-S6. Second panel: Viability changes of M14 melanoma cells shown between 24-48 h of treatment. […]

[2] = system: B16-F10 mouse melanoma cells; test: Tumor volumes in mice pretreated topically and challenged with B16-F10 cells (FIG. 1); assay type: in vivo; details: 1.5 M topical for 3 weeks before challenge with 5×10^5 B16-F10 cells; p<0.05
B16-F10 tumors = test: CD8 T cell infiltration in B16-F10 tumors of mice pretreated topically (FIG. 6); assay type: in vivo, mouse; details: mice pretreated topically with 1.5 M MBEH vs without; n=3, p<0.01
[3] = system: TRP-1+ melanocytes in C57BL/6 skin; test: Detection of TRP-1+ melanocytes in topically treated mouse skin (FIG. 2); assay type: in vivo; details: 1.5 M topical for 6 weeks
From the text: FIG. 2. Melanocytes are undetectable in mouse skin topically treated with MBEH. TRP-1^+ melanocytes (arrows) are detected in control animals but not in C57BL/6 skin treated with 1.5 M MBEH for 6 weeks.

[4] = cited from earlier work
B16 melanoma cells = test: cells; details: Mus musculus, B16, 24 h, read-out: half-maximum cytotoxicity (IC50) concentration
Procedure: FIG. 8. […] Free MBEH or lauroyl-MBEH-loaded liposomes were added to B16 melanoma cells in culture. After 24 h, the viability among the remaining cells was measured at different nanoparticle concentrations.

## Oc1ccc(OCc2ccccc2)cc1 [MBEH, monobenzyl ether of hydroquinone]
[1]
  cytotoxicity mediated by melanosomal enzymes: All enzymes but MART-1 can mediate cytotoxicity
M14 melanoma cells
  cell numbers reduced over the treatment period: 45%
[2]
  tumor growth (tumor volumes): prevents tumor growth
B16-F10 tumors
  number of cytotoxic (CD8) T cells in tumors, enhancement after exposure: 4.7 fold
[3]
  TRP-1+ melanocytes in skin: undetectable
[4]
  solubility in water: highly insoluble in water
B16 melanoma cells
  IC50: ~500 µM
